# Test results as given in patent EP0987275B1, “Molecules that home to a selected organ or tissue in vivo” (LA JOLLA CANCER RESEARCH FOUNDATION, priority 1995, dated 2008).
# Values joined by “and” are separate entries in the source; they are usually repeats but may differ in a detail not shown here. Equal values may be shown once. Where no end group is shown, it is not given here.
# Columns and labels:
# [1] = tested on: Human 435 breast carcinoma cells; assay: In vivo panning in mice bearing a human breast carcinoma tumor; set-up: species or system nude mice; details: phage recovered from human breast cancer after third round, 14 cloned phage; for # clones: CX3CX3CX3C library
# Protocol: Human 435 breast carcinoma cells (Price et al., Cancer Res. 50:717-721 (1990)) were inoculated into the mammary fat pad of nude mice. When the tumors attained a diameter of about 1 cm, either a phage targeting experiment was performed, in which phage expressing a specific peptide were administered to the tumor bearing mouse, or in vivo panning was performed.
# The breast tumor bearing mice were injected with 1 x 10^9 phage expressing a library of CX3CX3CX3C (SEQ ID NO: 47) peptides, where X3 indicates three groups of independently selected, random amino acids. The phage were allowed to circulate for 4 min, then the mice were anesthetized, snap frozen in liquid nitrogen while under anesthesia, and the tumor was removed. Phage were isolated from the tumor and subjected to two additional rounds of in vivo panning.
# Following the third round of panning, phage were quantitated and the peptide sequences expressed by 14 different cloned phage were determined. The 14 cloned phage expressed 4 different peptides (Table 3).
# [2] = tested on: Human 435 breast carcinoma cells; assay: Competition of RGD phage tumor homing by coinjected free peptide; assay type: in vivo, nude mice; details: coinjection of 500 µg free peptide
# Protocol: (§1) Human 435 breast carcinoma cells were inoculated into the mammary fat pad of nude mice. When the tumors attained a diameter of about 1 cm, phage expressing a specific RGD-containing peptide were administered to the tumor bearing mouse. Similar results to those discussed below also were obtained with nude mice bearing tumors formed by implantation of human melanoma C8161 cells or by implantation of mouse B16 melanoma cells.
# 1 x 10^9 phage expressing the RGD-containing peptide, […] (SEQ ID NO: 57; see, Koivunen et al., supra, 1995) or control (insertless) phage were injected intravenously (iv) into the mice and allowed to circulate for 4 min. The mice then were snap frozen while under anesthesia, and various organs, including tumor, brain and kidney, were removed and the phage present in the organs was quantitated (see Pasqualini and Ruoslahti, supra, 1996).
# kidney [3] = assay: In vivo panning of phage peptide display libraries, kidney as the selected organ (brain control); set-up: species or system mice; details: phage recovered from kidney; for (% PHAGE): % of the 48 clones sequenced; for # PHAGE DISPLAYING SAME A.A. SEQUENCE: 48 cloned phage sequenced
# Protocol: (§2) A mixture of phage libraries containing 1 x 10^14 TU was diluted in 200 µl DMEM and injected into the tail vein of anesthetized BALB\c mice (2 month old females; Jackson Laboratories; Bar Harbor ME); Avertin™ (0.015 ml/g) was used as anesthetic (see Pasqualini and Ruoslahti, supra, 1996). After 1-4 minutes, mice were snap frozen in liquid nitrogen. To recover the phage, carcasses were partially thawed at room temperature for 1 hr, organs were collected and weighed, then were ground in 1 ml DMEM-PI (DMEM containing protease inhibitors (PI); phenylmethylsulfonyl fluoride (PMSF; 1 mM), aprotinin (20 µg/ml), leupeptin (1 µg/ml)).
# (§3) Organ samples were washed 3 times with ice cold DMEM-PI containing 1% bovine serum albumin (BSA), then directly incubated with 1 ml K91-kan bacteria for 1 hr. Ten ml NZY medium containing […] tetracycline (NZY/tet) was added to the bacterial culture, the mixture was incubated in a 37°C shaker for 1 hr, then 200 µl aliquots were plated in agar plates containing 40 µg/ml tetracycline (tet/agar).
# (§4) Individual colonies containing phage recovered from brain or kidney were grown for 16 hr in 5 ml NZY/tet. The bacterial cultures obtained from the individual colonies were pooled and the phage were purified and re-injected into mice as described above for a second round of in vivo panning. A third round of panning also was performed. Phage DNA was purified from individual bacterial colonies obtained from the second and the third round of in vivo panning and the DNA sequences encoding the peptides expressed by selected phage were determined (see Koivunen et al., supra, 1994b).
# The same methodology used to isolate phage expressing brain homing peptides was used to isolate phage expressing peptides that home to kidney. In these experiments, brain was used as the control organ. A mixture of the CX5C (SEQ ID NO: 36) and the CX6C (SEQ ID NO: 37) libraries was administered as described above. Homing of phage to the kidney was obtained and an approximately 3x to 7x enrichment of phage homing to kidney was observed following a second round of in vivo panning.
# (§5) The amino acid sequences were determined for the inserts in 48 cloned phage that homed to kidney. The peptides expressed by these phage were represented by two predominant sequences, CLPVASC (SEQ ID NO: 21; 46% of the clones sequenced) and CGAREMC (SEQ ID NO: 22; 17% of the clones; see Table 2). In addition, the peptide CKGRSSAC (SEQ ID NO: 23) appeared three times and three other peptides were present twice each.
# kidney [4] = assay: Selective kidney homing of individual phage (kidney vs brain); assay type: in vivo, mice
# Protocol: as §5
# [5] = tested on: Human 435 breast carcinoma cells; assay: In vivo targeting of phage expressing an RGD peptide to a breast tumor; set-up: species or system nude mice; details: for RGD phage as compared to unselected control phage accumulated in the tumor: human breast carcinoma tumors
# Protocol: as §1
# 1 x 10^9 phage expressing the RGD-containing peptide, CDCRGDCFC (SEQ ID NO: 57; see, Koivunen et al., supra, 1995) or control (insertless) phage were injected intravenously (iv) into the mice and allowed to circulate for 4 min. The mice then were snap frozen while under anesthesia, and various organs, including tumor, brain and kidney, were removed and the phage present in the organs was quantitated (see Pasqualini and Ruoslahti, supra, 1996).
# brain [6] = assay: In vivo panning of phage peptide display libraries, brain as the selected organ (kidney control); set-up: species or system mice; details: phage recovered from brain; for (% PHAGE): % of the 73 clones sequenced; for # PHAGE DISPLAYING SAME A.A. SEQUENCE: second and third rounds of in vivo panning, 73 cloned phage sequenced
# Protocol: Phage display libraries were constructed using the fuse 5 vector as described by Koivunen et al. (supra, 1995; see, also, Koivunen et al. Meth. Enzymol. 245:346-369 (1994b), which is incorporated herein by reference). Six libraries encoding peptides designated CX5C (SEQ ID NO: 36), CX6C (SEQ ID NO: 37), CX7C (SEQ ID NO: 38), CX9 (SEQ ID NO: 39), X2CX14CX2 (SEQ ID NO: 40) and X2CX18 (SEQ ID NO: 41) were prepared, where "C" indicates cysteine and "XN" indicates the given number of individually selected amino acids. These libraries can display cyclic peptides when at least two cysteine residues are present in the peptide.
# Oligonucleotides were constructed such that "C" was encoded by the codon TGT and "XN" was encoded by NNK, where "N" is equal molar mixtures of A, C, G and T, and where "K" is equal molar mixtures of G and T. Thus, the peptide represented by CX5C (SEQ ID NO: 36) can be represented by an oligonucleotide having the sequence TGT(NNK)5TGT (SEQ ID NO: 42). Oligonucleotides were made double stranded by 3 cycles of PCR amplification, purified and ligated to the nucleic acid encoding the gene III protein in the fuse 5 vector such that, upon expression, the peptide is present as a fusion protein at the N-terminus of the gene III protein.
# The vectors were transfected by electroporation into MC1061 cells. Bacteria were cultured for 24 hr in the presence of 20 µg/ml tetracycline, then phage were collected from the supernatant by precipitation twice using polyethylene glycol. Each library contained about 5 x 10^9 to 5 x 10^14 transducing units (TU; individual recombinant phage).
# as §2, §3, §4
# Three rounds of in vivo panning in mice were performed. Kidney was used as a control organ. Mice were injected with two different mixtures of phage libraries. The first mixture contained libraries encoding CX9 (SEQ ID NO: 39), CX5C (SEQ ID NO: 36), CX6C (SEQ ID NO: 37) and CX7C (SEQ ID NO: 38) peptides (CX5-7/CX9 mixture; SEQ ID NOS: 36-39). The second mixture contained libraries encoding X2CX14CX2 (SEQ ID NO: 40) and X2CX18 (SEQ ID NO: 41) peptides (X2CX18/X2CX14CX2 mixture; SEQ ID NOS: 40 and 41).
# The phage library mixtures were administered to mice via tail vein injection. Phage input was […] of the CX5-7/CX9 (SEQ ID NOS: 36-39) mixture or 1 x 10^14 TU of the X2CX18/X2CX14CX2 (SEQ ID NOS: 40 and 41) mixture. […]
# brain [7] = assay: Specificity of brain homing of individually amplified phage (TU in brain vs kidney); assay type: in vivo, mice; details: individual phage, same input titer
# Protocol: To determine the specificity of brain homing of the individual motifs identified, phage displaying the predominant motifs were amplified individually, diluted to the same input titer and administered to mice. Following administration, brain and kidney were removed and the number of TU of phage in each organ was determined. […] Specifically, the ratio of selective homing (brain:kidney) was about 8 for CNSRLHLRC (SEQ ID NO: 1) and for CLSSRLDAC (SEQ ID NO: 3), 4 for CENWWGDVC (SEQ ID NO: 2) and 9 for […] (SEQ ID NO: 16).
# brain [8] = assay: Homing of 125I-peptide/RBC complex to brain, with peptide competition; assay type: in vivo, mouse; details: 10 mM unlabeled peptide
# Protocol: The synthetic cyclic CLSSRLDAC (SEQ ID NO: 3) peptide (1 mg) was labeled with iodine-125 using the Bolton and Hunter reagent (Amersham; Arlington Heights IL). Labeled peptide was purified by reverse phase HPLC on Sep-Pak™ cartridges (Waters, Millipore Corp.; Milford PA) and the ^125I-peptide (200 µg) was coupled to 1 ml glutaraldehyde-stabilized sheep RBC (Sigma Chemical Co.; St. Louis MO) according to the manufacturer's instructions.
# Fifty µl ^125I-peptide/RBC (200,000 cpm), alone or with 10 mM of unlabeled CLSSRLDAC (SEQ ID NO: 3), which is a brain homing peptide, or CVRLNSLAC (SEQ ID NO: 43), which has no brain homing activity, was injected into the tail vein. After 2 min, each mouse was perfused through the heart with 50 ml DMEM and the brain and kidney were removed and assayed for radioactivity.
# [9] = tested on: B16B15b mouse melanoma cells; assay: In vivo panning in mice bearing an implanted mouse melanoma tumor; set-up: species or system nude mice; details: phage recovered from B16B15b tumors; 89 cloned phage sequenced
# Protocol: Mice bearing a melanoma were produced by implantation of B16B15b mouse melanoma cells, which produce highly vascularized tumors. B16B15b mouse melanoma cells were injected subcutaneously into the mammary fat pad of nude mice (2 months old) and tumors were allowed to grow until the diameter was about 1 cm. In vivo panning was performed as disclosed above. Approximately 1 x 10^12 transducing units of phage expressing the CX5C (SEQ ID NO: 36), CX6C (SEQ ID NO: 37) or […] library were injected, iv, and allowed to circulate for 4 min. Mice then were snap frozen in liquid nitrogen while under anesthesia, tumor tissue and brain (control organ) were removed, and phage were isolated as described above. Three rounds of in vivo panning were performed.
# The amino acid sequences were determined for the inserts in 89 cloned phage recovered from the B16B15b tumors. The peptides expressed by these phage were represented by two predominant sequences, CLSGSLSC (SEQ ID NO: 55; 52% of the clones sequenced) and WGTGLC (SEQ ID NO: 52; 25% of the clones; see Table 4).
# melanoma = assay: Immunohistochemical staining (anti-M13) for phage localization in melanoma bearing mice; assay type: in vivo; details: 1 x 10^9 pfu phage iv, 4 min
# Protocol: Localization of the phage expressing a tumor homing peptide in the mouse organs was examined by immunohistochemical staining of the tumor and various other tissues. 1 x 10^9 pfu of a control (insertless) phage or a phage expressing the tumor homing peptide, CLSGSLSC ([…]), were injected, iv, into tumor bearing mice and allowed to circulate for 4 min. The mouse then was perfused with DMEM and various organs, including the tumor were removed and fixed in Bouin's solution. Histologic sections were prepared and stained using anti-M13 (phage) antibodies (see Pasqualini and Ruoslahti, supra, 1996).
substance,measurement,setting,value
CGEACGGQCALPC [breast tumor homing peptide],% of total phage sequenced,[1],28.6%
same,# clones,[1],4
ACDCRGDCFCG,reduction of the amount of RGD phage in the tumor by coinjected free peptide,[2],about tenfold
CLPVASC (displayed on phage),(% PHAGE),kidney [3],46% and 45.8%
same,# PHAGE DISPLAYING SAME A.A. SEQUENCE,kidney [3],22
same,ratio of selective kidney:brain homing,kidney [4],7
CGRECPRLCQSSC [breast tumor homing peptide],% of total phage sequenced,[1],42.9%
CGLMCQGACFDVC [peptide from phage recovered from human breast cancer],% of total phage sequenced,[1],7.1%
same,# clones,[1],1
CDCRGDCFC,phage detected in the breast tumor as compared to brain and kidney,"[5]; 1 x 10^9 phage iv, 4 min",2-3 times
same,immunohistochemical staining for the phage in the tumor,[5]; breast tumors,accumulation of the RGD phage in the blood vessels within the tumor
same,RGD phage as compared to unselected control phage accumulated in the tumor,[5],80 fold
same,RGD phage as compared to unselected control phage accumulated in the tumor,[5]; listed as RGD phage,twenty- to eighty-fold
same,staining for the phage in brain or kidney (control organs),"[5]; mouse, in vivo",no staining
CGAREMC (displayed on phage),(% PHAGE),kidney [3],17% and 16.7%
same,# PHAGE DISPLAYING SAME A.A. SEQUENCE,kidney [3],8
same,ratio of selective kidney:brain homing,kidney [4],3
CENWWGDVC (displayed on phage),(% PHAGE),brain [6],19% and 19.2%
same,# PHAGE DISPLAYING SAME A.A. SEQUENCE,brain [6],14
same,ratio of selective homing (brain:kidney),brain [7],~4
CVRLNSLAC,effect of coadministered unlabeled peptide on brain homing of the CLSSRLDAC/RBC complex,brain [8],no effect
same,effect of coadministered unlabeled peptide on complex localizing to the kidney,brain [8],no effect
CKGRSSAC (cysteine pairing not given here; also: displayed on phage),(% PHAGE),kidney [3],6.2%
same,ratio of selective kidney:brain homing,kidney [4],2
WRCVLREGPAGGCAWFNRHRL (displayed on phage),(% PHAGE),brain [6],13.7%
same,# PHAGE DISPLAYING SAME A.A. SEQUENCE,brain [6],10
same,ratio of selective homing (brain:kidney),brain [7],~9
CNSRLHLRC (displayed on phage),(% PHAGE),brain [6],21.9%
same,# PHAGE DISPLAYING SAME A.A. SEQUENCE,brain [6],16
same,ratio of selective homing (brain:kidney),brain [7],about 8
CNGRCVSGCAGRC [breast tumor homing peptide],% of total phage sequenced,[1],21.4%
same,# clones,[1],3
CLSGSLSC (not fully specified; cysteine pairing not given here; also: displayed on phage),# clones,[9],46
same,% of total phage,[9],52%
same,immunostaining in the liver sinusoids and in spleen,melanoma,immunostaining was detected
same,immunostaining in the melanoma,melanoma,Strong immunostaining
same,staining in skin or in kidney samples,melanoma,Essentially no staining
